Assay results published in patent US20050228180A1, “Alpha, omega-dicarboximide derivatives as useful uro-selective a1a adrenoceptor blockers” (priority 2002, published 2005).
Where a name gives a salt, the structure may show the parent alone.

What was measured:
α1A adrenoceptor = target: T1, α1A adrenoceptor (Rattus norvegicus, UniProt P43140); assay: Radioligand binding, [3H] prazosin displacement, rat submaxillary membranes; settings: for Ki: [3H] prazosin displacement, rat submaxillary membranes, read-out: Affinity (Ki) α1A (Rat Submaxillary); for α1B/α1A: ratio of binding affinities, rat liver / rat submaxillary
T1 construct: from tissue; host or cells: rat submaxillary gland membranes
T1 sequence (P43140 1-466): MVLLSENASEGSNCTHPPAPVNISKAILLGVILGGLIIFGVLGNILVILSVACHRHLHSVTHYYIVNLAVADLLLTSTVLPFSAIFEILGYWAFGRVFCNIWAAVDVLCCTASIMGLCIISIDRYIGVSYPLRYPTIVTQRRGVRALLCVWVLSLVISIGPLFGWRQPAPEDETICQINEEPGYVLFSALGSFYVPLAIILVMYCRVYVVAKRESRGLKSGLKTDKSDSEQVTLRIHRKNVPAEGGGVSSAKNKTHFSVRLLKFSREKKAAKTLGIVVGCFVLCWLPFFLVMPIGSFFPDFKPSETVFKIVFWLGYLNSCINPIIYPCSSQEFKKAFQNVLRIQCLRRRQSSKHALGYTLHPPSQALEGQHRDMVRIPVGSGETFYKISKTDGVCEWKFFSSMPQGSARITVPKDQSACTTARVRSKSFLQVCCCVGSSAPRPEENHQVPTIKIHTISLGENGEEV
Procedure: (§1) Receptor binding assays were performed using native a-adrenoceptors. The affinity of different compounds for α1A and α1B adrenoceptor subtypes was evaluated by studying their ability to displace specific [^3H] prazosin binding from the membranes of rat submaxillary and liver respectively (Michel et al., Br J Pharmacol, 1989: 98:883). The binding assays were performed according to U+Prichard et al. (Eur J Pharmacol, 1978; 50:87 with minor modifications.
(§2) Submaxillary glands were isolated immediately after sacrifice. The liver was perfused with buffer (Tris HCl 50 mM, NaCl 100 mM, 10 mM EDTA pH 7.4). The tissues were homogenised in 10 volumes of buffer (Tris HCl 50 mM, NaCl 100 mM, 10 mM EDTA pH 7.4). The homogenate was filtered through two layers of wet gauge and filtrate was centrifuged at 500 g for 10 min. The supernatant was subsequently centrifuged at 40,000 g for 45 min. The pellet thus obtained was resuspended in the same volume of assay buffer (Tris HCl 50 mM, 5 mM EDTA pH 7.4) and was stored at −70° C. until the time of assay.
(§3) The membrane homogenates (150-250 μg protein) were incubated in 250 μl of assay buffer (Tris HCl 50 mM, EDTA 5 mM, pH 7.4) at 24-25° C. for 1 hour. Non specific binding was determined in the presence of 300 nM prazosin. The incubation was terminated by vacuum filtration over GF/B fibre filters. The filters were then washed with ice cold 50 mM Tris HCl buffer (pH 7.4). The filtermats were dried and bound radioactivity retained on filters was counted. The IC50 and Kd were estimated by using the non-linear curve-fitting program using G Pad Prism software. The value of inhibition constant Ki was calculated from competitive binding studies by using Cheng & Prusoff equation (Cheng & Prusoff, Biochem Pharmacol, 1973, 22: 3099-3108), Ki=IC50/(1+L/Kd) where L is the concentration of [^3H] prazosin used in the particular experiment (Table 1).

α1B adrenoceptor = target: T2, α1B adrenoceptor (Rattus norvegicus, UniProt P15823); assay: Radioligand binding, [3H] prazosin displacement, rat liver membranes; settings: read-out: Affinity (Ki) α1B (Rat Liver)
T2 construct: from tissue; host or cells: rat liver membranes
T2 sequence (P15823 1-515): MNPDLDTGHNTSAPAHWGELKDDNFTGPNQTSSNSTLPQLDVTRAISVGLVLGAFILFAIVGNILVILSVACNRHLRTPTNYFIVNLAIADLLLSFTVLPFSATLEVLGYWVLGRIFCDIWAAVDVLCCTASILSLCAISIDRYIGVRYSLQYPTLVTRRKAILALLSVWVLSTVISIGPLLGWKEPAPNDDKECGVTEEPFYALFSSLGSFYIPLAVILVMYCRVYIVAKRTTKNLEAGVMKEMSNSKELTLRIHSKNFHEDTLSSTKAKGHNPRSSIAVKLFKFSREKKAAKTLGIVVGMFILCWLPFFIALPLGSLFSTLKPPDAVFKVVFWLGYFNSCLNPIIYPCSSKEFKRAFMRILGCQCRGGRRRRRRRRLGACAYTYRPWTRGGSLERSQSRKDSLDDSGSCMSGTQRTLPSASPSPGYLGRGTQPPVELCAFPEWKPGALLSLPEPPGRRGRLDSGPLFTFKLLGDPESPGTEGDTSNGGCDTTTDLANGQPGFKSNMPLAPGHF
Procedure: as §1, §2, §3

[1] = target: T3, α1A adrenoceptor (prostate) (Rattus norvegicus, UniProt P43140); assay: In vitro functional assay, isolated prostate, phenylepinephrine contraction; type: cell-based; settings: for Selectivity α1D/α1A: functional, from pKB; for Kb: rat prostate, phenylepinephrine, read-out: α Adrenoceptor Subtype (pKB) α1A (converted)
T3 construct: from tissue; host or cells: isolated prostate tissue
T3 sequence (P43140 1-466): T1 sequence (P43140 1-466)
Source text: (§4) In order to study selectivity of action of these compounds towards different a-adrenoceptor subtypes, the ability of these compounds to antagonise (α1D) prostate (α1A) and spleen (α1B) was studied. Aorta and spleen tissues were isolated from urethane anaesthetized (1.5 g/kg) male wister rats. Isolated tissues were mounted in organ bath containing Krebs Henseleit buffer of the following composition (mM): NaCl 118; KCl 4.7; CaCl2 2.5; MgSO4 7H2O 1.2; NaHCO3 25; KH2PO4 1.2; glucose 11.5. Buffer was maintained at 37° C. and aereated with a mixture of 95% O2 and 5% CO2. A resting tension of 2 g (aorta) or 1 g (spleen and prostate) was applied to tissues. Contractile response was monitored using a force displacement transducer and recorded on chart recorders. Tissues were allowed to equilibrate for 2 hours. At the end of equilibration period, concentration response curves to norepinephrine (aorta) and phenylepinephrine (spleen and prostate) were obtained in the absence and presence of tested compound (at concentration of […]). Antagonist affinity was calculated and expressed as pKB values in Table II.

α1D adrenoceptor (aorta) = target: T4, α1D adrenoceptor (aorta) (Rattus norvegicus, UniProt P23944); assay: In vitro functional assay, isolated aorta, norepinephrine contraction; type: cell-based; settings: read-out: α Adrenoceptor Subtype (pKB) α1D (converted)
T4 construct: Isolated tissues were mounted in organ bath containing Krebs Henseleit buffer; from tissue; host or cells: isolated rat aorta
T4 sequence (P23944 1-561): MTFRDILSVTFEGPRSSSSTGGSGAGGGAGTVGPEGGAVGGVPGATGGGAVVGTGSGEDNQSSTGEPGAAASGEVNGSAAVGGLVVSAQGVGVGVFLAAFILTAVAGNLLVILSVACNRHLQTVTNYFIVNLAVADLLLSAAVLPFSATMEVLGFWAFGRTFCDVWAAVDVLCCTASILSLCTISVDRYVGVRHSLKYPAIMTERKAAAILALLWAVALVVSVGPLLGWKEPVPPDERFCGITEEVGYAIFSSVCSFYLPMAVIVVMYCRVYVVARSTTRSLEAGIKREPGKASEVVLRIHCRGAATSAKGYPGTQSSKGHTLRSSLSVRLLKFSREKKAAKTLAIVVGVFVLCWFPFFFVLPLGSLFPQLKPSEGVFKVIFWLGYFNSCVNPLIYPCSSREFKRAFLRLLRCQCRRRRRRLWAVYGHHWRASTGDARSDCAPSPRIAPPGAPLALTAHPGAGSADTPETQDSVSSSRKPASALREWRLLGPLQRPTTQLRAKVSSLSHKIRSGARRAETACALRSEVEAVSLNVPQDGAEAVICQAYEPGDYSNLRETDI
Source text: as §4

Ki (α1A adrenoceptor) [µM]	α1B/α1A (α1A adrenoceptor)	Ki (α1B adrenoceptor) [µM]	Selectivity α1D/α1A [1]	Kb [1] [µM]	Kb (α1D adrenoceptor (aorta)) [µM]	SMILES
0.00883	237	2.09	105	0.00158	0.166	CC(C)Oc1cc(N)ccc1N1CCN(CCCN2C(=O)C3CC=CCC3C2=O)CC1.Cl (stereo not drawn) [Compound No. 26, 2-[3-{4-(2-Isopropoxy-4-aminophenyl)piperazin-1-yl}propyl]-3a,4,7,7a-tetrahydro-1H-isoindole-1,3(2H)-dione hydrochloride]
0.0012	118	0.142	18	0.000363	0.00646	CC(C)Oc1ccccc1N1CCN(CCCN2C(=O)C3CCCC(O)C3C2=O)CC1.Cl (stereo not drawn) [Compound No. 60, 2-[3-{4-(2-Isopropoxyphenyl)piperazin-1-yl}-propyl]4-hydroxy-3a,4,5,6,7,7a-hexahydro-1H-isoindole-1,3(2H)-dione hydrochloride]
0.038	7	0.263	0.56	0.00661	0.00372	COc1ccccc1N1CCN(CC(O)CN2C(=O)C3CC=CCC3C2=O)CC1.Cl (stereo not drawn) [compound 06, 2-[3-{4-(2-Methoxyphenyl)piperazin-1-yl}-2-hydroxypropyl]-3a,4,7,7a-tetrahydro-1H-isoindole-1,3(2H)-dione hydrochloride]
0.038	15	0.582	–	–	–	CC(C)Oc1c(O)cccc1N1CCN(CCCN2C(=O)C3CC=CCC3C2=O)CC1 (stereo not drawn) [Compound No. 35, 2-[3-{4-(2-Isopropoxy-3-hydroxyphenyl)piperazin-1-yllpropyl]-3a,4,7,7a-tetrahydro-1H-isoindole-1,3(2H)-dione hydrochloride]

Second part, the compound before the results:

SMILES	Ki (α1A adrenoceptor) [µM]	α1B/α1A (α1A adrenoceptor)	Ki (α1B adrenoceptor) [µM]	Selectivity α1D/α1A [1]	Kb [1] [µM]	Kb (α1D adrenoceptor (aorta)) [µM]
CC(=O)OC1C=CCC2C(=O)N(CCCN3CCN(c4ccccc4OC(C)C)CC3)C(=O)C12 (stereo not drawn) [Compound No. 40, 2-[3-{4-(2-Isopropoxyphenyl)piperazin-1-yllpropyl]4-acetoxy-3a,4,7,7a-tetrahydro-1H-isoindole-1,3(2H)-dione hydrochloride]	0.00082	174	0.143	4.5	0.000339	0.00151
O=C1C2CC3OC3CC2C(=O)N1CC(O)CN1CCN(c2ccccc2OCC(F)(F)F)CC1 (stereo not drawn) [Compound No. 34, 2-[3-{4-(2-(2,2,2-Trifluoroethoxy)phenyl)piperazin-1-yl}-2-hydroxypropyl]-5,6-epoxy-3a,4,5,7,7a-hexahydro-1H-isoindole-1,3(2H)-dione]	0.00195	159	0.311	15	0.00126	0.0191
CC(C)Oc1ccccc1N1CCN(CC(O)CN2C(=O)CCCC2=O)CC1.Cl (stereo not drawn) [Compound No. 29, 1-[4-(2-Isopropoxyphenyl)piperazin-1-yl]-2-hydroxy-3-(2,6-dioxopiperidin-1-yl)propane hydrochloride]	0.0028	85	0.238	45	0.000229	0.0102
CCOc1ccccc1N1CCN(CCCN2C(=O)C3CCC(O)CC3C2=O)CC1.Cl (stereo not drawn) [Compound No. 18, 2-[3-{4-(2-Ethoxyphenyl)piperazin-1-yl}propyl]-5-hydroxy-3a,4,5,6,7,7a-hexahydro-1H-isoindole-1,3(2H)-dione hydrochloride]	0.0015	65	0.097	1.3	0.000427	0.000575
O=C1C2CC3OC3CC2C(=O)N1CCCN1CCN(c2ccccc2OCC(F)(F)F)CC1 (stereo not drawn) [Compound No. 32, 2-[3-{4-(2-(2,2,2-Trifluoroethoxy)phenyl)piperazin-1-yl}propyl]-5,6-epoxy-3a,4,5,6,7,7a-hexahydro-1H-isoindole-1,3(2H)-dione]	0.00018	283	0.051	23	0.000676	0.0158
COc1ccccc1N1CC[N+]([O-])(CC(O)CN2C(=O)CCCC2=O)CC1 (stereo not drawn) [Compound No. 69, 1-[4-(2-Methoxyphenyl)piperazin-1-yl-1-N-oxide]-3-(2,6-dioxopiperidin-1-yl]-2-hydroxypropane]	7.16	>10	> 10	–	–	–
CC(C)Oc1ccc(O)cc1N1CCN(CCCN2C(=O)CCCC2=O)CC1 [Compound No. 36, 1-[4-(2-Isopropoxy-5-hydroxyphenyl)piperazin-1-yl]-3-(2,6-dioxopiperdin-1-yl)piperazin-1-yl]-3-(2,6-dioxopiperidin-1-yl)propane hydrochloride]	0.011	52	0.571	–	–	–
CCOC(=O)CN(CCCN1C(=O)C2CC=CCC2C1=O)CCNc1ccccc1OC(C)C (stereo not drawn) [Compound No. 52, 2-[N-{N′-(2-Isopropoxyphenyl)aminoethyl}ethylacetate-aminopropyl]-3a,4,7,7a-tetrahydro-1H-isoindole-1,3(2H)-dione]	0.351	>43	> 15	–	–	–
